These results are taken from patent publication US8003649B2 (AstraZeneca AB, priority 2007, dated 2011).

The assay has as its target T1, Androgen Receptor (AR) (Homo sapiens, UniProt P10275, T878A).
T1 construct: cell based immuno-fluorescence assay using the LNCaP prostate epithelial cell line; endogenous in cells; host or cells: LNCaP clone FGC (ATCC CRL-1740)
T1 sequence (P10275 1-920 T878A): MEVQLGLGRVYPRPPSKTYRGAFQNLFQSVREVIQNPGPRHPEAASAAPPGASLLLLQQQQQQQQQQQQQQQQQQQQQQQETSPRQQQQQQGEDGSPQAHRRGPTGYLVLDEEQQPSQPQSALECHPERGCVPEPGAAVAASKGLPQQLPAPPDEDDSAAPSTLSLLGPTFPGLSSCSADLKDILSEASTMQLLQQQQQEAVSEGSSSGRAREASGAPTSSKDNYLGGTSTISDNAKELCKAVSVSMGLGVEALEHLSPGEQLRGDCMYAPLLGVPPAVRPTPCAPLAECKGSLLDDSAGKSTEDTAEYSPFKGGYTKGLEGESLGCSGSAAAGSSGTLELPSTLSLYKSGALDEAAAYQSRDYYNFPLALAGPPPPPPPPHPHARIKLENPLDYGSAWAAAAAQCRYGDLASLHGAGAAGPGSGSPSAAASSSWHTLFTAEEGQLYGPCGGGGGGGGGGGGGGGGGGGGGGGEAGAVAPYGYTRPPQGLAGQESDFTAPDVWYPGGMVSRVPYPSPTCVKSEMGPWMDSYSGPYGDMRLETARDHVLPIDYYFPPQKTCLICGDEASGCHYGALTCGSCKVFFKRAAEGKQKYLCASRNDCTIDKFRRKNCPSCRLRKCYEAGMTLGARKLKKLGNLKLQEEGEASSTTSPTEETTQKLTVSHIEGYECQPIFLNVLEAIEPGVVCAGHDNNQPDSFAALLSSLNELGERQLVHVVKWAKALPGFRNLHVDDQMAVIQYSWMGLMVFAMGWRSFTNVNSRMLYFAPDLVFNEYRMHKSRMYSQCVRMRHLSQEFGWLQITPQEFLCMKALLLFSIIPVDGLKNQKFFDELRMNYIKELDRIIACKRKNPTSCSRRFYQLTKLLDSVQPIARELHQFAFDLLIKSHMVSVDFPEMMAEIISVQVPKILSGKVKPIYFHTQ
Description: LNCaP Androgen Receptor Down-regulation Cell Assay (immunofluorescence end point). The note with it: LNCaP prostate carcinoma cells, compound incubation 20-22 hours, 50% reduction of the AR signal; read-out: Androgen Receptor Down-regulation Assay (a) IC50/μM. The assay is classed as cell-based. The method in brief:
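AR loss reported as IC50 from curve fits of fluorescence dose-response data, with AR immunostained and read by laser-scanning cytometry. Compound exposure was 20-22 h at 37° C in LNCaP cells grown in 5% charcoal-stripped FBS and plated overnight beforehand.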
Take `CN1CCN(CC(=O)Nc2ccc(C3CCN(c4ccc5nnc(C(F)(F)F)n5n4)CC3)cc2)CC1` [Example 708, 2-(4-methylpiperazin-1-yl)-N-[4-[1-[3-(trifluoromethyl)[1,2,4]triazolo[4,3-b]pyridazin-6-yl]piperidin-4-yl]phenyl]acetamide]: the DC50 was 6.2 µM. In the case of `Fc1cc(CN2CCN(c3ccc4nnc(C(F)(F)F)n4n3)CC2)cc(F)c1F` [Example 767], the DC50 was over 12 µM.

Consider `O=C(c1ccc(C2CCN(c3ccc4nnc(C(F)(F)F)n4n3)CC2)cc1)N1CC[C@H](O)C1` [Example 739], for which the DC50 was 3.2 µM.

In the case of `COc1cccc(CN2CCN(c3ccc4nnc(C(F)(F)F)n4n3)CC2)c1` [Example 82, 6-[4-[(3-methoxyphenyl)methyl]piperazin-1-yl]-3-(trifluoromethyl)-[1,2,4]triazolo[4,3-b]pyridazine], the DC50 amounted to 1.6 µM. Under `O=C(NCc1cocn1)c1cccc(OC2CCN(c3ccc4nnc(C(F)(F)F)n4n3)CC2)c1` [Example 707] stands 7.9 µM; under `O=C(NCCN1CCOCC1)c1ccc(C2CCN(c3ccc4nnc(C(F)(F)F)n4n3)CC2)cc1` [Example 638, N-(2-morpholin-4-ylethyl)-4-[1-[3-(trifluoromethyl)[1,2,4]triazolo[4,3-b]pyridazin-6-yl]piperidin-4-yl]benzamide], 0.9 µM; under `FC(F)(F)c1nnc2ccc(N3CCC(c4noc(-c5cccc(Cl)c5)n4)CC3)nn12` [Example 299], 0.84 µM. With `NC(=O)COc1ccc(CN2CCN(c3ccc4nnc(C(F)(F)F)n4n3)CC2)cc1` [Example 153, 2-[4-[[4-[3-(trifluoromethyl)-[1,2,4]triazolo[4,3-b]pyridazin-6-yl]piperazin-1-yl]methyl]phenoxy]acetamide], the DC50 amounted to 7.9 µM. As for `FC(F)(F)c1nnc2ccc(N3CC(COc4cccnc4)C3)nn12` [Example 492], the DC50 is over 30 µM. On to `CCNC(=O)c1cccc(OC2CCN(c3ccc4nnc(C(F)(F)F)n4n3)CC2)c1` [Example 695], for which the DC50 amounted to 3.3 µM. Under `FC(F)(F)c1ccnc(OC2CCN(c3ccc4nnc(C(F)(F)F)n4n3)CC2)c1` [Example 621] stands 2.3 µM; under `CCN(CC)c1ccc(CN2CCN(c3ccc4nnc(C(F)(F)F)n4n3)CC2)cc1` [Example 128, N,N-diethyl-4-[[4-[3-(trifluoromethyl)-[1,2,4]triazolo[4,3-b]pyridazin-6-yl]piperazin-1-yl]methyl]aniline], 2.3 µM; under `O=C(CCCN1CCOCC1)Nc1cccc(C2CCN(c3ccc4nnc(C(F)(F)F)n4n3)CC2)c1` [Example 661], 0.65 µM. Consider `FC(F)(F)c1nnc2ccc(N3CCN(Cc4ccnc5ccccc45)CC3)nn12` [Example 50, 4-[[4-[3-(trifluoromethyl)-[1,2,4]triazolo[4,3-b]pyridazin-6-yl]piperazin-1-yl]methyl]quinoline], for which the DC50 stood at 1.4 µM. Under `O=C1CCc2ccccc2N1C1CCN(c2ccc3nnc(C(F)(F)F)n3n2)CC1` [Example 40, 1-[1-[3-(trifluoromethyl)-[1,2,4]triazolo[4,3-b]pyridazin-6-yl]piperidin-4-yl]-3,4-dihydroquinolin-2-one] stands 3.3 µM; under `COCCN(C)C(=O)c1ccc(C2CCN(c3ccc4nnc(C(F)(F)F)n4n3)CC2)cc1` [Example 512, N-(2-methoxyethyl)-N-methyl-4-[1-[3-(trifluoromethyl)[1,2,4]triazolo[4,3-b]pyridazin-6-yl]piperidin-4-yl]benzamide], 0.87 µM. Turning to `Fc1ccc2[nH]cc(CN3CCN(c4ccc5nnc(C(F)F)n5n4)CC3)c2c1` [Example 290], the DC50 amounted to 5.8 µM.

As to `C[C@@H]1CN(Cc2cccnc2)CCN1c1ccc2nnc(C(F)(F)F)n2n1` [Example 599, 6-[(2R)-2-methyl-4-(pyridin-3-ylmethyl)piperazin-1-yl]-3-(trifluoromethyl)[1,2,4]triazolo[4,3-b]pyridazine], the DC50 was 5.8 µM. Under `CN1CCN(C(=O)c2ccc3[nH]cc(C4CCN(c5ccc6nnc(C(F)(F)F)n6n5)CC4)c3c2)CC1` [Example 497] stands 2.8 µM; under `O=C(NCCN1CCOCC1)c1ccc(N2CCN(c3ccc4nnc(C(F)(F)F)n4n3)CC2)cc1` [Example 750], 2.6 µM; under `N#Cc1cccc(OC2CCN(c3ccc4nnc(C(F)(F)F)n4n3)CC2)c1` [Example 623], 0.89 µM. For `COc1ccc(S(=O)(=O)N2CCN(c3ccc4nnc(C(F)(F)F)n4n3)CC2)cc1` [Example 398], the DC50 amounted to 1.9 µM. On to `Fc1ccc(CN2CCN(c3ccc4nnc(C(F)(F)F)n4n3)CC2)c(F)c1` [Example 382], for which the DC50 came out at 1.8 µM. As to `Cn1nccc1CCOc1ccc(N2CCN(c3ccc4nnc(C(F)F)n4n3)CC2)cc1` [Example 856, 3-(difluoromethyl)-6-[4-[4-[2-(1-methyl-1H-pyrazol-5-yl]ethoxy]phenyl]piperazin-1-yl)[1,2,4]triazolo[4,3-b]pyridazine], the DC50 was found to be 2.2 µM. Under `Cn1nccc1COc1ccc(C2CCN(c3ccc4nnc(C(F)(F)F)n4n3)CC2)cc1` [Example 736] stands 0.4 µM; under `FC(F)(F)c1nnc2ccc(N3CCN(C(c4ccccc4)c4ccccc4)CC3)nn12` [Example 22, 6-(4-benzhydrylpiperazin-1-yl)-3-(trifluoromethyl)-[1,2,4]triazolo[4,3-b]pyridazine], 1.4 µM.

For `FC(F)(F)c1nnc2ccc(N3CCN(Cc4cnccc4Br)CC3)nn12` [Example 377], the DC50 was 5.9 µM.

Regarding `Fc1ccc(O[C@@H]2CCN(c3ccc4nnc(C(F)(F)F)n4n3)C2)cc1` [Example 581], the DC50 came out at 3.3 µM.

As to `COc1ccc(C2(O)CCN(c3ccc4nnc(C(F)(F)F)n4n3)CC2)cc1` [Example 311], the DC50 was found to be 5 µM. As to `FC(F)c1nnc2ccc(N3CCN(Cc4cccc(Cl)c4)CC3)nn12` [Example 248], the DC50 was 1.7 µM.

`FC(F)(F)c1nnc2ccc(N3CCN(Cc4nccs4)CC3)nn12` [Example 51, 6-[4-(1,3-thiazol-2-ylmethyl)piperazin-1-yl]-3-(trifluoromethyl)-[1,2,4]triazolo[4,3-b]pyridazine]: the DC50 was 8.4 µM. On to `C[C@@H]1CN(c2ccc3nnc(C(F)(F)F)n3n2)CCN1Cc1ccc(F)cc1` [Example 568], for which the DC50 was 3.3 µM.

Regarding `FC(F)(F)c1nnc2ccc(N3CCC(COC4COC4)CC3)nn12` [Example 481], the DC50 was determined as 6.6 µM. Under `COc1cccc(O[C@@H]2CCN(c3ccc4nnc(C(F)(F)F)n4n3)C2)c1` [Example 586] stands 2.1 µM. Under `COCCNC(=O)c1ccc(C2CCN(c3ccc4nnc(C(F)(F)F)n4n3)CC2)cc1` [Example 633] stands 1.9 µM; under `O=[N+]([O-])c1ccc(N2CCN(c3ccc4nnc(C(F)(F)F)n4n3)CC2)cc1` [Example 21, 6-[4-(4-nitrophenyl)piperazin-1-yl]-3-(trifluoromethyl)-[1,2,4]triazolo[4,3-b]pyridazine], 0.27 µM.

On to `C[C@H]1CN(c2ccc3nnc(C(F)(F)F)n3n2)CCN1Cc1ccc(F)c(F)c1` [Example 572], for which the DC50 turned out to be 3.4 µM. In the case of `FC(F)(F)c1nnc2ccc(N3CCC(Oc4cnccn4)CC3)nn12` [Example 544], the DC50 was 2.9 µM. For `Fc1ccc(N2CCN(c3ccc4nnc(C(F)(F)F)n4n3)CC2)c(F)c1` [Example 29, 6-[4-(2,4-difluorophenyl)piperazin-1-yl]-3-(trifluoromethyl)-[1,2,4]triazolo[4,3-b]pyridazine], the DC50 is 4.2 µM.

Regarding `O=C(Nc1ccc(F)cc1)N1CC2CN(c3ccc4nnc(C(F)(F)F)n4n3)CC2C1` (stereo not shown) [Example 213, N-(4-fluorophenyl)-2-[3-(trifluoromethyl)-[1,2,4]triazolo[3,4-f]pyridazin-6-yl]-1,3,3a,4,6,6a-hexahydropyrrolo[3,4-c]pyrrole-5-carboxamide], the DC50 amounted to 4.5 µM.

`CN(C)CCOc1cccc(C2CCN(c3ccc4nnc(C(F)(F)F)n4n3)CC2)c1` [Example 675]: the DC50 stood at 1.5 µM. Under `FC(F)(F)c1cccc(C2CCN(c3ccc4nnc(C(F)(F)Cl)n4n3)C2)c1` (stereo not shown) [Example 336] stands 2.4 µM; under `Fc1ccc(C(F)F)c(CN2CCN(c3ccc4nnc(C(F)(F)F)n4c3)CC2)c1` [Example 810, 6-[4-[2-(difluoromethyl)-5-fluorobenzyl]piperazin-1-yl]-3-(trifluoromethyl)[1,2,4]triazolo[4,3-a]pyridine], 1.9 µM.
